Source: patent US20210300932A1, “CYCLIC PEPTIDES TARGETING ALPHA-4-BETA-7 INTEGRIN” (Zealand Pharma A/S, priority 2015, published 2021)

Legend:
[1] = Plasma protein binding determination, equilibrium dialysis, mouse plasma; settings: first table
Protocol: (§2) An equilibrium dialysis (HTDialysis) method was used employing 50% plasma collected from CD-1 mice or Sprague-Dawley rats and incubated with K2EDTA. Test articles were assessed at 1 microM concentration in three replicates. Incubation time as 5 hours and plasma and buffer standards were assessed using LC/MS/MS. Percentage recovery was calculated as (Cbuffer+Cplasma)/[average]Cinitial, [average]Cinitial being measured in triplicate from the test samples prior to dialysis. Percentage of compound unbound was calculated as Cbuffer/Cplasma.

[2] = tested on: DSS experimental model of ulcerative colitis; assay: 8-Day efficacy study in DSS model (therapeutic); type: in vivo, C57BI/6 mice; settings: for reduction of lesion length vs vehicle group / reduction of DAI score on Day 8 vs DSS+vehicle: Day 5 to Day 8
Excerpt: The STDs in ascending order bracketing the study samples and dosing solutions • 1. The study samples • 2.
Description of Tested Compounds
(§1) Animals. Female C57BI/6 mice (Charles River, St-Constant, Qc), weighting 16-19 g at delivery were used for this study. Following arrival in the animal facility, all animals were subjected to a general health evaluation. An acclimation period of 7-14 days was allowed before the beginning of the study.
Oral dosing of the test article and the vehicle. From Day 5 to Day 8, nacellins and the vehicle were administered as a single slow bolus (over approximately 5 seconds) via oral route (p.o.), according to the procedure of administration of solution by gavage: the animal was firmly restrained. A bulb-tipped gastric gavage needle of 22G was passed through the side of the mouth and was advanced towards the oesophagus. The test articles and the vehicle were dosed orally at 5 mL/kg.
Intraperitoneal dosing of the test articles and the vehicle. On day 5, DATK32 antibody was administered in only on Day 5, as a single slow bolus (over approximately 5 seconds) via the i.p. route. […] Intraperitoneal administration was performed accordingly to the following procedure: the mouse was restrained manually and held with the head and body tilted downward. The tip of the needle (27 G) was inserted through the skin and just past the abdominal wall. A short pull back of the plunger of the syringe was done prior to administration of the solution to make sure that the syringe was not inserted in any abdominal organ (fluid would be pulled back into the syringe in this case).
Inflammation Score. Once the mouse was euthanized, the colon was collected and its length was measured. Lesion length was also measured. Colon inflammation was scored based on severity of oedema and ulceration.
Disease Activity Index (DAI) assessment. Body weight and DAI were measured on Day 5 in order to distribute DSS-treated animals in two uniform groups prior dosing. Specific symptoms associated to UC were scored based on the severity of each particular symptoms: 1—blood in stool (negative hemoccult, positive hemoccult, blood traces in stool visible, rectal bleeding); 2—stool consistency (normal, soft but still formed, very soft, diarrhea); 3—posture and fur (normal; ruffled fur; ruffled fur combined to slight hunched posture and slight dehydration; ruffled fur combined to hunched posture, dehydration and altered walking; moribund (euthanasia is mandatory before the animal reach this point). The overall DAI score was the sum of the three parameters (maximum score 9). Body weight measurement and DAI assessment were performed also on Day 8 to evaluate the effect of the treatments.
Collection of samples. On Day 8, five hours after ET02451-01, ET02452-01 and vehicle dosing, the animals were euthanized by cardiac puncture under general anesthesia, according to the “Guide to the Care and Use of Experimental Animals” published by the CCAC. Blood was transferred in a Sarstedt tube containing EDTA. Mesenteric and peripheral (inguinal, auxiliary and brachial) lymph nodes were collected and transferred on ice in corresponding tubes containing cold PBS. Nodes were kept on ice until tissue preparation.
Cell population labeling. Blood was withdrawn by cardiac puncture and collected on EDTA-coated tubes. Mensenteric lymph nodes (MLN) and peripheral lymph nodes (PLN) were also collected. Mononuclear cells from the tissues will be isolated using density gradient (Lympholyte) and they were stained with fluorescent antibodies. […] After washes, cells were fixed using BD Fix Solution. Percentage of different subpopulations of T lymphocytes were then analysed using FACSCalibur cytometer. Antibodies employed were the same as listed for the single-dose PD studies above.

Aqueous solubility assay = type: physicochemical; settings: PBS pH 7.4, four hours, room temperature
Protocol: Solutions were incubated for four hours at room temperature and stirred at 600 rpm and run in triplicate. Centrifugation was performed for 15 minutes at 6000 rpm and solution concentration was determined using HPLC-UV (photodiode array detector acquiring between 220 nm, and 300 nm wavelengths).

in vitro = settings: Control buffer/Buffer at 0.1 uM % Recovery
Protocol: as §2

plasma proteins = assay: Plasma protein binding determination, equilibrium dialysis, mouse plasma; settings: CD-1, mouse, % recovery, Mouse plasma, equilibrium dialysis
Protocol: as §2

[3] = tested on: integrin alpha-4-beta-7-expressing T lymphocytes; assay: In vivo T lymphocyte trafficking analyses in DSS-treated mice; parameters: species or system C57BI/6 mice
Protocol: In Vivo T Lymphocyte Trafficking Analyses
as §1
Administration of DSS. Dextran sulfate sodium (DSS) was administered to C57B1/6 mice through addition to their drinking water at 2-3%. Mice accessed the DSS-treated water ad libitum over a 5-day period. Body weight and disease activity index (“DAI”) were measured on Day 5 in order to distribute DSS-treated animals in two uniform groups prior to dosing. Specific symptoms associated with colitis were scored based on the severity of each particular symptoms: 1—blood in stool (negative hemoccult, positive hemoccult, blood traces in stool visible, rectal bleeding); 2—stool consistency (normal, soft but still formed, very soft, diarrhea); 3—posture and fur (normal; ruffled fur; ruffled fur combined to slight hunched posture and slight dehydration; ruffled fur combined to hunched posture, dehydration and altered walking; moribund (euthanasia is mandatory before the animal reach this point). The overall DAI score was the sum of the three parameters (maximum score of 9). DAI assessment was performed on Day 5 only (prior to dosing). […]

in vivo = settings: male, CD-1, mouse, po, 48 mg/kg
Protocol: In Vivo Pharmacokinetic Assessments in Rodents
Oral bioavailability of test compounds was conducted by assessing plasma exposure of following one or two oral doses in mice and, in some cases, comparing said plasma exposure with that following a single intravenous dose of the same compound.
Body weights were recorded on the day of dosing.
Food restriction: Animals dosed p.o. were deprived of food overnight and fed ˜2 h following dosing.
Dosing: The formulation containing the test compound were administered p.o. by gavage with disposable feeding needles.
Sample collection: Terminal blood and tissue samples were collected under O2/CO2 anesthesia by cardiac puncture.
Sample processing/storage: All blood samples were transferred into K2EDTA tubes on wet ice and centrifuged within 5 min (3200×g for 5 min at 4° C.) to obtain plasma. Samples were stored frozen at −80° C. until bioanalysis.
Bioanalytical Method Qualification and Sample Analysis:
Instrumentation: AB Sciex API 4000 Q-TRAP MS/MS system equipped with an Agilent LC system with a binary pump, a solvent degasser, a thermostatted column compartment, a CTC autosampler and a divert valve installed between the column and mass spectrometer inlet.

## CC(C)NCC(O)COc1cccc2ccccc12 (stereo not drawn) [Propranalol, propranolol, reference compound]
[1]; Mouse plasma, 1 microM, replicate 1
  % unbound (Cbuffer/Cplasma) 1: 22.8%

## CC(C)C[C@@H]1NC(=O)c2ccc(-c3ccnc4ccccc34)c(c2)CNC(=O)[C@@H]2CCCN2[C@H](C(=O)NC(C)(C)C)[C@H](C)NC(=O)[C@H]([C@@H](C)O)NC(=O)[C@H](CC(=O)O)NC1=O [Compound No. 341]
[2]; 40 mg/kg p.o.
  reduction of lesion length vs vehicle group: 53%
[2]; 40 mg/kg p.o., b.i.d.
  reduction of DAI score on Day 8 vs DSS+vehicle: did not have any beneficial effect
[2]; 65 mg/kg i.p.
  CD3+CD4+α4β7+ cell population in mesenteric lymph nodes: significant decrease
  reduction of colon inflammation score vs vehicle: 39%
  reduction of DAI score on Day 8 vs DSS+vehicle: 46%
  reduction of lesion length vs vehicle group: 20%

## CC(C)C[C@@H]1NC(=O)[C@@H](Cc2ccc(O)cc2)NC(=O)[C@@H]2CCCN2[C@H](C(=O)NC(C)(C)C)[C@H](C)NC(=O)[C@H]([C@@H](C)O)NC(=O)[C@H](CC(=O)O)NC1=O [Compound No. 42]
Aqueous solubility assay
  Determined Concentration Rep 2: 960.0 µM

## CC(C)C[C@@H]1NC(=O)C2(CCCC2)NC(=O)[C@@H]2CCCN2[C@H](C(=O)NC(C)(C)C)[C@H](C)NC(=O)[C@H]([C@@H](C)O)NC(=O)[C@H](CC(=O)O)NC1=O [Compound No. 88]
Aqueous solubility assay
  Determined Concentration Rep 3: 934.8 µM

## CC(C)C[C@@H]1NC(=O)[C@@H](Cc2ccncc2)NC(=O)[C@@H]2CCCN2[C@H](C(=O)NC(C)(C)C)[C@H](C)NC(=O)[C@H]([C@@H](C)O)NC(=O)[C@H](CC(=O)O)NC1=O [Compound No. 62]
Aqueous solubility assay
  Determined Concentration Rep 2: 988.2 µM

## CC(C)C[C@@H]1NC(=O)[C@H](Cc2c[nH]c3ccccc23)NC(=O)[C@@H]2CCCN2[C@H](C(=O)NC(C)(C)C)[C@H](C)NC(=O)[C@H]([C@@H](C)O)NC(=O)[C@H](CC(=O)O)NC1=O [ET00762]
[1]
  Control buffer/Buffer at 0.1 uM Cdonor/Creciever: 79%

## CC(C)C[C@@H]1NC(=O)[C@H](Cc2ccc(-c3ccccc3)cc2)NC(=O)[C@@H]2CCCN2[C@H](C(=O)NC(C)(C)C)[C@H](C)NC(=O)[C@H]([C@@H](C)O)NC(=O)[C@H](CC(=O)O)NC1=O [Compound No. 12]
In vitro
  recovery at 5 hours, 0.1 uM: 128%
[1]
  Control buffer/Buffer at 0.1 uM Cdonor/Creciever: 94%
Plasma proteins; second table
  recovery at 5 hours, 1 microM: 89%

## CC(C)C[C@@H]1NC(=O)CN(C)C(=O)[C@H](Cc2ccc(O)cc2)NC(=O)[C@@H]2CCCN2[C@H](C(=O)NC(C)(C)C)[C@H](C)NC(=O)[C@H]([C@@H](C)O)NC(=O)[C@H](CC(=O)O)NC1=O [Compound No. 105]
[3]; single oral dose 200 mg/kg
  homing to the MLN: significant and robust attenuation of homing

## CC(C)C[C@@H]1NC(=O)[C@H](Cc2ccccc2)NC(=O)[C@@H]2CCCN2[C@H](C(=O)NC(C)(C)C)[C@H](C)NC(=O)[C@H]([C@@H](C)O)NC(=O)[C@H](CC(=O)O)NC1=O [Compound No. 5]
[3]; single oral dose 100 mg/kg
  homing to the MLN: significant reduction of homing
In vivo
  Cmax: ~1600 ng/mL
In vitro
  recovery at 5 hours, 0.1 uM: 108%
[1]
  Control buffer/Buffer at 0.1 uM Cdonor/Creciever: 80%
Plasma proteins; first table
  recovery at 5 hours, 1 microM: 130%
Plasma proteins; second table
  recovery at 5 hours, 1 microM: 97%
